According to ChEMBL document CHEMBL4033734, “Synthesis of 3- and 29-substituted celastrol derivatives and structure-activity relationship studies of their cytotoxic activities” (Bioorg Med Chem Lett, 2017):

How the values were obtained:
A549 [1] = experiment: Cytotoxic activity against human A549 cells incubated for 48 hrs by MTT assay; format: functional, cell-based; conditions: A549, 48 h
Bel-7402 = experiment: Cytotoxic activity against human Bel7402 cells incubated for 48 hrs by MTT assay; format: functional, cell-based; conditions: Bel-7402, 48 h
SGC-7901 = experiment: Cytotoxic activity against human SGC7901 cells incubated for 48 hrs by MTT assay; format: functional, cell-based; conditions: SGC-7901, 48 h
HeLa = experiment: Cytotoxic activity against human HeLa cells incubated for 48 hrs by MTT assay; format: functional, cell-based
HepG2 = experiment: Cytotoxic activity against human HepG2 cells incubated for 48 hrs by MTT assay; format: functional, cell-based; conditions: HepG2, 48 h
Mus musculus [2] = experiment: Toxicity in nude mouse xenografted with human A549 cells assessed as induction of mouse fatality at 3 mg/kg, ig dosed every day; format: organism-based; conditions: in vivo, po
Mus musculus [3] = experiment: Toxicity in nude mouse xenografted with human A549 cells assessed as induction of mouse fatality at 6 mg/kg, ig dosed every day; format: organism-based; conditions: in vivo, po
Mus musculus [4] = experiment: Toxicity in nude mouse xenografted with human A549 cells assessed as induction of mouse fatality at 12 mg/kg, ig dosed every day; format: organism-based; conditions: in vivo, po
Mus musculus [5] = experiment: Toxicity in nude mouse xenografted with human A549 cells assessed as change in body weight at 3 mg/kg, ig dosed every day (reference value: 26.8 g); format: organism-based; conditions: in vivo, po
Mus musculus [6] = experiment: Toxicity in nude mouse xenografted with human A549 cells assessed as change in body weight at 6 mg/kg, ig dosed every day (reference value: 25.9 g); format: organism-based; conditions: in vivo, po
Mus musculus [7] = experiment: Toxicity in nude mouse xenografted with human A549 cells assessed as change in body weight at 12 mg/kg, ig dosed every day (reference value: 25.8 g); format: organism-based; conditions: in vivo, po
A549 [8] = experiment: Antitumor activity against human A549 cells xenografted in nude mouse assessed as relative tumor volume at 3 mg/kg, ig dosed every day relative to initial tumor volume; format: functional
A549 [9] = experiment: Antitumor activity against human A549 cells xenografted in nude mouse assessed as relative tumor volume at 6 mg/kg, ig dosed every day relative to initial tumor volume; format: functional
A549 [10] = experiment: Antitumor activity against human A549 cells xenografted in nude mouse assessed as relative tumor volume at 12 mg/kg, ig dosed every day relative to initial tumor volume; format: functional
A549 [11] = experiment: Antitumor activity against human A549 cells xenografted in nude mouse assessed as tumor growth inhibition at 3 mg/kg, ig dosed every day; format: functional; conditions: A549, po, read-out: TGI
A549 [12] = experiment: Antitumor activity against human A549 cells xenografted in nude mouse assessed as tumor growth inhibition at 6 mg/kg, ig dosed every day; format: functional; conditions: A549, po, read-out: TGI
A549 [13] = experiment: Antitumor activity against human A549 cells xenografted in nude mouse assessed as tumor growth inhibition at 12 mg/kg, ig dosed every day; format: functional; conditions: A549, po, read-out: TGI
A549 [14] = experiment: Antitumor activity against human A549 cells xenografted in nude mouse assessed as tumor growth inhibition at 3 to 12 mg/kg, ig dosed every day; format: functional, organism-based

Compound	IC50 (A549 [1]) [nM]	IC50 (Bel-7402) [nM]	IC50 (SGC-7901) [nM]	IC50 (HeLa) [nM]	IC50 (HepG2) [nM]	also measured
CCCCOC(=O)[C@]1(C)CC[C@]2(C)CC[C@]3(C)C4=CC=C5C(=CC(=O)C(O)=C5C)[C@]4(C)CC[C@@]3(C)[C@@H]2C1	1360	1010	730	790	1050	–
CC1=C(OC(=O)N2CCN(Cc3ccccc3)CC2)C(=O)C=C2C1=CC=C1[C@@]2(C)CC[C@@]2(C)[C@@H]3C[C@](C)(C(=O)OCc4ccccc4)CC[C@]3(C)CC[C@]12C	8850	5170	11700	18000	9900	–
CC1=C(OC(=O)N(C)c2ccccc2)C(=O)C=C2C1=CC=C1[C@@]2(C)CC[C@@]2(C)[C@@H]3C[C@](C)(C(=O)OCc4ccccc4)CC[C@]3(C)CC[C@]12C	14800	4070	4310	6360	4250	–
CCOC(=O)COC(=O)[C@]1(C)CC[C@]2(C)CC[C@]3(C)C4=CC=C5C(=CC(=O)C(O)=C5C)[C@]4(C)CC[C@@]3(C)[C@@H]2C1	3890	300	670	610	760	–
CC1=C(O)C(=O)C=C2C1=CC=C1[C@@]2(C)CC[C@@]2(C)[C@@H]3C[C@](C)(C(=O)OCc4cccc(Cl)c4)CC[C@]3(C)CC[C@]12C	3250	370	310	420	870	–
CC1=C(O)C(=O)C=C2C1=CC=C1[C@@]2(C)CC[C@@]2(C)[C@@H]3C[C@](C)(C(=O)OCc4ccc(Br)cc4)CC[C@]3(C)CC[C@]12C	3070	520	810	870	660	–
CC1=C(O)C(=O)C=C2C1=CC=C1[C@@]2(C)CC[C@@]2(C)[C@@H]3C[C@](C)(C(=O)OCc4ccc([N+](=O)[O-])cc4)CC[C@]3(C)CC[C@]12C	2010	240	510	410	440	–
CC1=C(O)C(=O)C=C2C1=CC=C1[C@@]2(C)CC[C@@]2(C)[C@@H]3C[C@](C)(C(=O)OCOCc4ccccc4)CC[C@]3(C)CC[C@]12C	3780	510	300	1120	370	–
CC1=C(O)C(=O)C=C2C1=CC=C1[C@@]2(C)CC[C@@]2(C)[C@@H]3C[C@](C)(C(=O)OCc4ccc(C)cc4)CC[C@]3(C)CC[C@]12C	3120	630	700	1050	430	–
CCC(C)OC(=O)[C@]1(C)CC[C@]2(C)CC[C@]3(C)C4=CC=C5C(=CC(=O)C(O)=C5C)[C@]4(C)CC[C@@]3(C)[C@@H]2C1 (stereo partly drawn)	1930	590	360	360	390	–
COC(=O)[C@]1(C)CC[C@]2(C)CC[C@]3(C)C4=CC=C5C(=CC(=O)C(O)=C5C)[C@]4(C)CC[C@@]3(C)[C@@H]2C1 [PRISTIMERIN]	1030	1160	630	320	780	–
CC1=C(OC(=O)N2CCN(C)CC2)C(=O)C=C2C1=CC=C1[C@@]2(C)CC[C@@]2(C)[C@@H]3C[C@](C)(C(=O)OCc4ccccc4)CC[C@]3(C)CC[C@]12C	5180	1020	1280	2310	2610	Activity (Mus musculus [2]): Non-Toxic; Activity (Mus musculus [3]): Non-Toxic; Activity (Mus musculus [4]): Non-Toxic; Activity (Mus musculus [5]): 26.5 g; Activity (Mus musculus [6]): 27 g; Activity (Mus musculus [7]): 26.9 g; fold change (FC) (A549 [8]): 0.76; fold change (FC) (A549 [9]): 0.63; fold change (FC) (A549 [10]): 0.55; inhibition in vivo at 3 mg/kg (A549 [11]): 46.1%; inhibition in vivo at 6 mg/kg (A549 [12]): 57.5%; inhibition in vivo at 12 mg/kg (A549 [13]): 71%; TGI (A549 [14]): Dose-dependent effect
CCN1CCN(C(=O)OC2=C(C)C3=CC=C4[C@@](C)(CC[C@@]5(C)[C@@H]6C[C@](C)(C(=O)OCc7ccccc7)CC[C@]6(C)CC[C@]45C)C3=CC2=O)CC1	5910	2440	2880	1590	4610	–
